Structures are written as SMILES. Entries after “also recorded” stand apart in the source; their conditions may differ. Some results are limits rather than exact numbers.

Format in all cases: cell-based
One experiment concerns the target T1, HTN-BRD4 (Homo sapiens, UniProt O60885+P62942, F37V).
T1 construct: HaloTag fragment; expressed in transfected cells; host or cells: HEK293T
Briefly: IP-WB of HTN-BRD4 O-GlcNAcylation (RL2) in HEK293T cells co-expressing fOGT. As to conditions: for region of induced HTN-BRD4 O-GlcNAcylation: HTN-BRD4:fOGT=1:0.05, truncated/mutant constructs. The protocol: We next assess their potency in inducing HTN-BRD4 O-GlcNAcylation in cell. […]
For each IP reaction, 2.2×10^6 HEK293T cells were seed in 10 cm dish. After cells attached, transfection reagents and plasmids were prepared and added in DMEM. After 24 h transfection, media were replaced by fresh warm complete media with DMSO or probes. For washout study, after 4 h treatment, media with DMSO or OGTAC-4 (500 nM) were replaced by fresh media with DMSO or AP1867 (50 μM) for further incubation. After certain time of OGTACs treatment, cells were collected by cold PBS and lysed by 200 μL complete IP lysis buffer. The lysate was incubated on ice for 20 min, spun down at 14,000 RPM at 4° C. for 15 mins, and the supernatant were collected for bicinchoninic acid (BCA) assay and normalized to a final 2 mg/mL. For input, 20 μL of diluted sample was reacted with equal volume of 10 μM TMR ligand in IP lysis buffer and rotate gently at RT for 15 mins. The remaining samples were subjected to protein A/G magnetic beads (MedChemExpress, HY-K0202), which pre-binding with protein target protein antibody. For samples for LC-MS/MS or HTN-BRD4 mutant constructs. Halo-Trap Magnetic Agarose (Proteintech, otma) was used to incubate with protein lysates. After gentle rotation at 4° C. for at least 16 h, the beads were washed with IP lysis buffer and boiled in 40 μL 2×SDS-loading buffer (Biorad #1610747) for 5 mins to elute proteins from beads. Eluted samples were directly subjected into WB analysis.
(§1) In general, cells (from 12 well plate) were lysed by 80 μl RIPA lysis buffer (Thermo Scientic 89901) supplemented with 20 μM OGA inhibitor (Thaimet G, Bidepharm BD571819) and 100X protease inhibitor (MedChemExpress, HY-K0010), incubated on ice for 20 min, spun down at 14,000 RPM at 4° C. for 15 mins, and the supernatant were collected for bicinchoninic acid (BCA) assay and normalizedeto a final 2 mg/mL concentration. About 30 μg of protein samples were loaded for sodium dodecyl sulfatepolyacrylamide gel electrophoresis (SDS-PADE) and blotted with indicated antibodies.

A further experiment relates to endogenous CK2α. Briefly: Chemoenzymatic labelling and mass-shift assay, endogenous CK2α. The conditions noted are these: OGTAC-1 treatment.
Experiment [1] relates to cellular global O-GlcNAc level. The experiment in a line: Global (pan-RL2) O-GlcNAc level by immunoblot.
Source text: After illustrating the potency and generality of the OGTAC strategy, we then assessed its specificity towards the global O-GlcNAc proteome. We quantified the total pan-O-GlcNAc level (except for the specific band for target POI) using immunoblotting. For well-validated OGT substrates such as CK2α relatively low fOGT protein amount is sufficient to facilitate the inducing effect of our OGTAC-1. […] HTN-BRD4:fOGT=1:0.01 condition is not sufficient for OGTAC to exert inducing effects even though ternary complex was formed (FIG. 15). We hypothesize that an optimal threshold of OGT protein levels is required for efficient O-GlcNAc transfer to BRD4. To address the trade-off between potency and specificity on BRD4, we developed a truncated fOGT system. The tetratricopeptide repeat (TPR) domain of fOGT is responsible for substrate recognition; truncation of TPR domain can reduce its activity towards protein substrates. We therefore constructed and compared several truncated fOGT (tfOGT) plasmids.
as §1
On the technique in general: A western blot detects proteins with antibodies after separation by electrophoresis.

A further experiment has as its target HTN-CK2α (Homo sapiens, UniProt P68400). The experiment in a line: Immunoblot of HTN-CK2α O-GlcNAcylation in HeLa cells. As to conditions: 125 nM, 8 h. Here is the method: FIG. 12: Immunoblotting analysis of effects of OGTAC-1 on HTN-CK2αin HeLa cell line. HeLa cells were transfected with fOGT:HTN-CK2α=1:0.1 for 24 h, followed by treatment of OGTAC-1 (125 nM) or other probes for 8 h. For OGTAC-1H, ‘++’ denotes 10-fold concentration of OGTAC-1, while “+” denote the same concentration of OGTAC-1. The quantification was conducted by immunoblot signal of RL2 relative to CK2α. as the mean±s.e.m. of n=3 biologically independent experiments. Statistical significance was calculated by unpaired t-tests.
S347 is a well-defined O-GlcNAcylation site on CK2α, while S348 is the potential alternative site as it is adjacent to S347. To verify the O-GlcNAc sites induced by OGTAC-1 in HTN-CK2α. we constructed HTN-CK2α plasmids with S347A and S347A/S348A mutations. […] Collectively, these findings support the physiological relevance of O-GlcNAcylation induced by OGTAC-1.

The target in the next experiment is T2, endogenous BRD4 (Homo sapiens, UniProt O60885).
T2 construct: endogenous BRD4 in cell line stably expressing fOGT; endogenous in cells
Briefly: IP-WB of endogenous BRD4 in cell line stably expressing fOGT. From the text: We next pursued the induction of POI O-GlcNAcylation independent of Halotag; this could facilitate the induction of O-GlcNAcylation on endogenous POIs for their functional dissection. […] As OGTAC-4 directly recruit BRD4, we first try to assess its potency on endogenous BRD4 in cell line stably expressing fOGT. […] Then, we overexpressed BRD4 together with fOGT in HEK293T cells to accommodate the readout to fit in IP-WB detection limit. As expected, in the co-expression system, we validated the O-GlcNAcylation inducing effect of OGTAC-4. […] Of note, OGTAC-4 promoted BRD4 O-GlcNAcylation and the formation of a stable ternary complex between BRD4 and fOGT at concentrations as low as 3 nM (FIG. 4C & FIG. 14). […] This may be due to the sub-stoichiometric catalytic activity of OGTAC-4; at lower concentration, OGTAC-4 can still be effective because after enzymatic transfer of O-GlcNAc from fOGT active site to BRD4, the BRD4 would dissociate from the original ternary complex and other unmodified BRD4 could be recruited to fOGT by OGTAC-4. However, OGTAC-1 covalently linked to HTN-BRD4, and AP1867 binds tightly to fOGT. therefore, once HTN-BRD4 dissociated, free OGTAC-1 molecules may form binary complex with fOGT and inhibit other HTN-BRD4 from formation of new ternary complex. […]

T1 sequence (P62942 whole entry F37V, stated change not applied, other chains not shown, the tested form may be a part): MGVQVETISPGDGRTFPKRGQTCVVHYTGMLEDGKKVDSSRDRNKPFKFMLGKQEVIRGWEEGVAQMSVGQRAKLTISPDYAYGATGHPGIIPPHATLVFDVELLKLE
Sequence of HTN-CK2α (P68400 with tags, fused parts or gaps): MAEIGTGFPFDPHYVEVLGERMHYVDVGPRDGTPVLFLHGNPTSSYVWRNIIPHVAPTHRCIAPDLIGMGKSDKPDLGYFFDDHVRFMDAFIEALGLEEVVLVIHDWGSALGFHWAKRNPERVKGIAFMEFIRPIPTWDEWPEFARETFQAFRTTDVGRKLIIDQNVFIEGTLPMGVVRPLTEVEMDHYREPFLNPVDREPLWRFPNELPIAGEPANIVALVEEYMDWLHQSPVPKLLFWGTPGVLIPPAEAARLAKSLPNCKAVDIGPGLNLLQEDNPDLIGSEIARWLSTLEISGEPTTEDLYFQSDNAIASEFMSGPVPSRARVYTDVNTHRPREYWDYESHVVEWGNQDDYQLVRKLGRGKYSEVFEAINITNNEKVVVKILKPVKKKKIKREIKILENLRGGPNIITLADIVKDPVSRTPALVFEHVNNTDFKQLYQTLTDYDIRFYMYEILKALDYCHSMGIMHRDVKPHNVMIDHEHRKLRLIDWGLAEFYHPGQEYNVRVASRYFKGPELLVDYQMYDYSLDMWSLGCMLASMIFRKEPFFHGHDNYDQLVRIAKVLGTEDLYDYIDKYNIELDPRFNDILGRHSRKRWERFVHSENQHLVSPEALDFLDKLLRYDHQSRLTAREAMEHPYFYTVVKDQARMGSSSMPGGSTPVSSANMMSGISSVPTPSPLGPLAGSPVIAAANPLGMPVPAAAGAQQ
Sequence of HTN-CK2α (P62942+O15294 fused P62942:F37V partner): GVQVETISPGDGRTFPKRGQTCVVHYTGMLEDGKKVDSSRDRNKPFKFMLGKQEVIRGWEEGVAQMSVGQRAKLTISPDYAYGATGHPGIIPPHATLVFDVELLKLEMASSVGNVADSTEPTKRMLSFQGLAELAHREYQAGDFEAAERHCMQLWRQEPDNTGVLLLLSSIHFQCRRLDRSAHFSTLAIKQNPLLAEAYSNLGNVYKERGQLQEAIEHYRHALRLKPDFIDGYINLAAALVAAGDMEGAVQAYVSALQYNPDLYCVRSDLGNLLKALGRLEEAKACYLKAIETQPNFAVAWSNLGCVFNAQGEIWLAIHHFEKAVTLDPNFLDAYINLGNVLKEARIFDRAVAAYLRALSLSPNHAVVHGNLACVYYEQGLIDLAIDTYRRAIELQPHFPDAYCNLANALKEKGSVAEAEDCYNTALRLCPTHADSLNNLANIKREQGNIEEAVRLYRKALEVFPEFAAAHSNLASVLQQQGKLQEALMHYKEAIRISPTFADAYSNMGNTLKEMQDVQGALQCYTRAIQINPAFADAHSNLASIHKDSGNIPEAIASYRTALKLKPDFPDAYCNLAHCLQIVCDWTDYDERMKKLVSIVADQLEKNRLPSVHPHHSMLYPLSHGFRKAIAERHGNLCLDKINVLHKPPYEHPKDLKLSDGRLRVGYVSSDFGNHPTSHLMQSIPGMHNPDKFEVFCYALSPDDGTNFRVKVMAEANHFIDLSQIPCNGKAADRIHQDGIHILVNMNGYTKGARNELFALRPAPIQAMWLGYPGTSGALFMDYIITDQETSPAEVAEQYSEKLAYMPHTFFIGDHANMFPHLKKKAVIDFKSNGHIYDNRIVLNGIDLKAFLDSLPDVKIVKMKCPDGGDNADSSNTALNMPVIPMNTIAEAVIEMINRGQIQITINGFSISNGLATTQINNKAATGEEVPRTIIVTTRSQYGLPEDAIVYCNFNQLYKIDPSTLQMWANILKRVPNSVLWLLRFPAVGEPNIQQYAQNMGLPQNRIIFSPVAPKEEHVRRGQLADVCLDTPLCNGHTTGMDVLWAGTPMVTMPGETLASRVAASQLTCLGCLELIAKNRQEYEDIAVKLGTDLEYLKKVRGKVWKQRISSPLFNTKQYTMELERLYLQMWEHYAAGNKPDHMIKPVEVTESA

As to `CC[C@H](C(=O)N1CCCC[C@H]1C(=O)O[C@H](CCc1ccc(OC)c(OC)c1)c1cccc(OCC(=O)NCCOCCOCCCCCCCl)c1)c1cc(OC)c(OC)c(OC)c1` [OGTAC-1, (R)-1-(3-(2-((2-(2-((6-chlorohexyl)oxy)ethoxy)ethyl)amino)-2-oxoethoxy)phenyl)-3-(3,4-dimethoxyphenyl)propyl (S)-1-((S)-2-(3,4,5-trimethoxyphenyl)butanoyl) piperidine-2-carboxylate], at HTN-BRD4, the “efficacy as O-GlcNAcylation inducer” value was “submicromolar efficacy” and the “region of induced HTN-BRD4 O-GlcNAcylation” value is reported as “C-terminal region (S1367-F1224)”. The “fold increase of RL2 signal of BRD4” value at HTN-BRD4 (640 nM, 2 h) was determined as 2.5 fold. Moreover, the “fold increase of RL2 signal of BRD4” value at HTN-BRD4 (640 nM, 4 h) is “around 2.8 fold”. Further, at HTN-BRD4 (5 μM, 4 h), the “HTN-BRD4 O-GlcNAcylation inducing potency” value is recorded as “best O-GlcNAcylation inducing potency among three OGTACs; also recorded: outstanding potency”. For the same compound, the “concentration from which inducing effect declined (hook effect)” value on HTN-BRD4 (4 h) amounted to 1.6 µM. The “O-GlcNAcylation level of endogenous CK2α” value in the experiment with endogenous CK2α was “did not alter”. The “cellular global O-GlcNAc level” value in experiment [1] (125 nM, HTN-CK2α:fOGT=1:0.01) was “not significantly changed”. For the same compound, the pan-RL2 level result in experiment [1] (HTN-BRD4:fOGT system, dose-response, 4 h) is “not affected”. In addition, the “effect on HTN-CK2α in HeLa cells” value on HTN-CK2α is on record as “confirmed the effect”.

Turning to `CC[C@H](C(=O)N1CCCC[C@H]1C(=O)O[C@H](CCc1ccc(OC)c(OC)c1)c1cccc(OCC(=O)NCCCCCCNC(=O)C[C@@H]2N=C(c3ccc(Cl)cc3)c3c(sc(C)c3C)-n3c(C)nnc32)c1)c1cc(OC)c(OC)c(OC)c1` [OGTAC-4, (R)-1-(3-(2-((6-(2-((S)-4-(4-chlorophenyl)-2,3,9-trimethyl-6H-thieno[3,2-f[]8 1,2,4]triazolo[4,3-a][1,4]diazepin-6-yl)acetamido)hexyl)amino)-2-oxoethoxy)phenyl)-3-(3,4-dimethoxyphenyl)propyl (S)-1-((S)-2-(3,4,5-trimethoxyphenyl)butanoyl)piperidine-2-carboxylate], at HTN-BRD4, the “efficacy as O-GlcNAcylation inducer” value is reported as “submicromolar efficacy” and the “region of induced HTN-BRD4 O-GlcNAcylation” value was “C-terminal region (S1367-F1224)”. The “time at which O-GlcNAcylation of HTN-BRD4 was induced” value at HTN-BRD4 (640 nM) is ≤ 2 h. For the same compound, the “time of peak induction of HTN-BRD4 O-GlcNAcylation” value on HTN-BRD4 (640 nM, longest time point) is recorded as 24 h. On HTN-BRD4 (4 h, 3 nM conducted once), the “lowest concentration promoting BRD4 O-GlcNAcylation and ternary complex” value was 3 nM. Besides, the “O-GlcNAcylation inducing effect on HTN-BRD4” value on HTN-BRD4 (HTN-BRD4:fOGT=1:0.01 system) is recorded as “No O-GlcNAcylation inducing effect”. Further, the “global O-GlcNAc level” value in experiment [1] (0tfOGT:HTN-BRD4 system) is “without disruption of global O-GlcNAc level”. In addition, in experiment [1] (HTN-BRD4:0tfOGT, washout study), the “global O-GlcNAc levels during reversibility study” value is on record as “remained unchanged”. Besides, the “O-GlcNAc signal on endogenous BRD4 (IP-WB, RL2)” value on endogenous BRD4 is given as “failed to detect any signal”.

Values taken from patent publication US20250035641A1, “COMPOSITIONS AND METHODS RELATED TO PROTEIN LABELING” (The Chinese University of Hong Kong, priority 2023, published 2025).
